{"source": "patent US10399968B2", "about": "“Hydroxyalkyl thiadiazole derivatives” (Daiichi Sankyo Company, Limited, priority 2015, dated 2019)", "key": {"[1]": {"test_system": "S. aureus ATCC 29213", "assay": "Susceptibility of bacteria, broth microdilution MIC", "type": "cell-based", "settings": "Staphylococcus aureus, ATCC29213", "summary_of_the_method": "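CLSI M7-A7 broth microdilution with 2-fold serial compound dilutions; inoculum from 0.5 McFarland suspension diluted 10-fold, 4 μL per well. Incubated 35 °C for about 20 h; MIC is the lowest concentration preventing visible growth.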"}, "[2]": {"assay": "Oral bioavailability (BA) in monkeys", "type": "in vivo, Macaca fascicularis", "settings": "male, cynomolgus monkey, blood, 1 mg/kg oral vs jugular vein", "protocol": "To male Macaca fascicularis (3 or 4 year-old) fasted overnight, a solution of the test compound Captisol® was administered into the jugular vein (3 animals) and a solution of Lutrol® F68 was orally administered (3 animals). The dose of both test compounds was 1 mg/kg body weight of the monkey. The amount of Captisol® used was 0.18 mg/kg body weight of the monkey. The amount of Lutrol® F68 used was 0.02 mg/kg body weight of the monkey. The BA value was calculated by the formula below using the integration value (AUCiv(0-∞)) of the blood concentration extrapolated from time 0 to infinity after administration of both test compounds. BA(%)=[[(AUCpo(0-∞))/(dose po)]/[(AUCiv(0-∞))/(dose iv)]]×100 The greater a BA value of the compound shown, the higher the oral bioavailability is."}, "[3]": {"test_system": "Staphylococcus aureus", "assay": "Neutropenic mouse thigh or calf muscle infection model", "type": "in vivo", "settings": "neutropenic mice, compared with linezolid", "text": "After culture in broth medium (i) suitable diluent of a bacterial suspension of the Staphylococcus aureus strain, or (ii) equivalent mixture of suitable diluent of a bacterial suspension of the Enterococcus faecium strain and a 10% mucin suspension were used as the inoculum. The bacterial suspension was inoculated under anesthesia with a ketamine-xylazine mixture into the thigh or calf muscle of Swiss albino mice or ICR mice (4- to 6-week-old) compromised by the cyclophosphamide administration. The drug was administered to the mice 1 to 8 times at an interval of 3 to 24 hours. The number of bacteria in the thigh or calf muscle was counted for the non-treated group immediately before initial administration of the drug (pre-control), for the non-treated group (post-control) and for the drug-administered group on the next day of administration of the drug and infection. A change in the number of bacteria in the thigh or calf muscle was used as an index of therapeutic effect."}, "[4]": {"test_system": "Clostridium difficile 2009155, a NAP1/027 strain", "assay": "Hamster CDI model", "type": "in vivo", "settings": "0.3 mg/kg/day by oral route, 5 days", "protocol": "The in vivo efficacy of test compounds were evaluated in a hamster CDI model caused by Clostridium difficile 2009155, a NAP1/027 strain. Syrine hamsters (6-8-weeks old) were primed with a single subcutaneous injection of clindamycin (30 mg/kg) 1-5 days prior to infection. Hamsters were infected by oral gavage with 1 ml of spore suspension ([…]) prepared in PBS. The drug was administered to the hamsters 6 hours post infection by oral or subcutaneous route at an interval of 24 hours for 5 days. The death and survival of the non-treated group and the drug-administered group were recorded once daily for 35 days."}, "[5]": {"test_system": "E. faecium ATCC 29212", "assay": "Susceptibility of bacteria, broth microdilution MIC", "type": "cell-based", "settings": "Enterococcus faecium, ATCC29212", "protocol": "(§1) The antibacterial activity of the compounds of the present invention was tested by the broth microdilution method. The assay was carried out according to the CLSI guidelines for managing the procedures of susceptibility tests: “M7-A7 Methods for Dilution Antimicrobial Susceptibility Tests for Bacteria That Grow Aerobically; Approved Standard-Seventh Edition (2006)”. Test strains were grown on appropriate agar plates overnight. A broth containing the test compound diluted serially 2-fold and diluents were dispensed at 100 μL to each well of a 96-well microplate. As a growth control, a well with a broth not containing the test compound was also prepared. Colonies grown on the plates were suspended in saline, adjusted to 0.5 McFarland (OD625=0.08 to 0.10) using a colorimeter, and then diluted 10-fold with saline. The bacterial suspension was inoculated at 4 μL into each well of the microplate using a bacterial suspension inoculation apparatus. The inoculated microplate was incubated at 35° C. overnight (about 20 hours). The growth condition was observed by the naked eye, and the minimum concentration to inhibit bacterial proliferation was defined as a minimum inhibitory concentration (MIC)."}, "[6]": {"test_system": "Streptococcus pneumoniae ATCC 49619", "assay": "Susceptibility of bacteria, broth microdilution MIC", "type": "cell-based", "settings": "ATCC49619", "protocol": "as §1"}, "[7]": {"test_system": "Haemophilus influenzae ATCC 49247", "assay": "Susceptibility of bacteria, broth microdilution MIC", "type": "cell-based", "settings": "ATCC49247", "protocol": "as §1"}, "[8]": {"molecular_target": "Clostridium difficile DNA gyrase (Clostridioides difficile, UniProt Q18C89)", "sequence (Q18C90 entry or part of it)": "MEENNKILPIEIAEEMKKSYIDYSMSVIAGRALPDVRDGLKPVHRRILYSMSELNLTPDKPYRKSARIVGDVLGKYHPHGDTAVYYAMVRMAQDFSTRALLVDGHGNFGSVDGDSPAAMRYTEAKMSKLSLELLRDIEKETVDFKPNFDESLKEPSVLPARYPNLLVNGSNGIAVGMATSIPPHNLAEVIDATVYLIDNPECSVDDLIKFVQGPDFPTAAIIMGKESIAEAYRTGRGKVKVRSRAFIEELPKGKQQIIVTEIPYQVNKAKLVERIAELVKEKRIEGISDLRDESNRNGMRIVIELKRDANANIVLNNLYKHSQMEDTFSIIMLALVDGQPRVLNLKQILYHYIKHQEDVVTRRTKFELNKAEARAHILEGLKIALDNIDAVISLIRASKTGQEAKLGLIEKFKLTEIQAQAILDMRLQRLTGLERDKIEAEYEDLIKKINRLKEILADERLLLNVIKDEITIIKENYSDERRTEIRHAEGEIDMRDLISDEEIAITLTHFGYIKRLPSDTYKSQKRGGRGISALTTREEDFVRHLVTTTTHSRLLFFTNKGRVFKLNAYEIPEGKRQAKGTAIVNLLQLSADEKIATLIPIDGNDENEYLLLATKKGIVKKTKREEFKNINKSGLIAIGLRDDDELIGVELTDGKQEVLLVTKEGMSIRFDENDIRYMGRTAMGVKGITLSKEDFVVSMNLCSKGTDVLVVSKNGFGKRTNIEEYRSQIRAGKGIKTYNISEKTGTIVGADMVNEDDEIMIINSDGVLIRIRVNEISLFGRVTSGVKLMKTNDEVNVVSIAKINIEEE", "sequence (Q18C89 entry or part of it)": "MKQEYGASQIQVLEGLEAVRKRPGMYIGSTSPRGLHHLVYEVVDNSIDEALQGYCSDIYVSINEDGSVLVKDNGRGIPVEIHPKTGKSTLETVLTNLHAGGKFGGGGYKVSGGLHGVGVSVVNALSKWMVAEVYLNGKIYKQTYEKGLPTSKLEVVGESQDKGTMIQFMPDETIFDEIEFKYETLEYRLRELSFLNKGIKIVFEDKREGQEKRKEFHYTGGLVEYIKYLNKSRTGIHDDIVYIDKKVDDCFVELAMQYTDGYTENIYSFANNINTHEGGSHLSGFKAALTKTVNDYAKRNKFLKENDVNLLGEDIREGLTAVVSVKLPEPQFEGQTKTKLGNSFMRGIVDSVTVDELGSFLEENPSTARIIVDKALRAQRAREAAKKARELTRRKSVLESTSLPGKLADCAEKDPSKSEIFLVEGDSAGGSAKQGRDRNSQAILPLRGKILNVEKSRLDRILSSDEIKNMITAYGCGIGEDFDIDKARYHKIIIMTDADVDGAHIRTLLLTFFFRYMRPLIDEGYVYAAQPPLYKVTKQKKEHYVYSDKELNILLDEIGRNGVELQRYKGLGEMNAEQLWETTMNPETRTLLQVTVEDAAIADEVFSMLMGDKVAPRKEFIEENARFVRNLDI", "assay": "DNA supercoiling inhibition assay", "type": "biochemical", "settings": "supercoiling of relaxed pBR322 DNA, 60 minutes at 37° C.", "summary_of_the_method": "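Relaxed pBR322 (400 ng) supercoiled by C. difficile gyrase for 60 min at 37 °C in Tris-HCl pH 7.5 with 6 mM MgCl2, 70 mM KCl, compounds added from 20% DMSO. Products resolved on 1.0% agarose, EtBr-stained; supercoiled band intensity quantified and IC50 fitted.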"}}}
{"smiles": "CCc1[nH]c(C(=O)N[C@@H]2CCN(c3nnc([C@H](C)O)s3)C[C@@H]2OC)nc1Cl", "note": "(single isomer, unassigned) [Compound No. 5]", "values": [{"measurement": "MIC", "setting": "[1]", "result": 0.5, "unit": "µg/mL"}, {"measurement": "bioavailability", "setting": "[2]", "result": 100, "unit": "%"}, {"measurement": "therapeutic effect against Staphylococcus aureus (number of bacteria in thigh or calf muscle)", "setting": "[3]", "result": "equivalent to or higher than linezolid"}, {"measurement": "survival on day 35", "setting": "[4]", "result": 100, "unit": "%"}, {"measurement": "MIC", "setting": "[5]", "result": 0.25, "unit": "µg/mL"}, {"measurement": "MIC", "setting": "[6]", "result": 0.25, "unit": "µg/mL"}, {"measurement": "MIC", "setting": "[7]", "result": 1, "unit": "µg/mL"}, {"measurement": "IC50", "setting": "[8]", "result": 21.7, "unit": "nM"}]}
{"smiles": "CCc1[nH]c(C(=O)N[C@@H]2CCN(c3nnc(C(C)(C)O)s3)C[C@@H]2OC)nc1Cl", "note": "[Compound No. 2, 4-Chloro-5-ethyl-N-{(3S,4R)-1-[5-(2-hydroxypropan-2-yl)-1,3,4-thiadiazol-2-yl]-3-methoxypiperidin-4-yl}-1H-imidazole-2-carboxamide]", "values": [{"measurement": "MIC", "setting": "[1]", "result": 0.25, "unit": "µg/mL"}, {"measurement": "bioavailability", "setting": "[2]", "result": 85, "unit": "%"}, {"measurement": "therapeutic effect against Staphylococcus aureus (number of bacteria in thigh or calf muscle)", "setting": "[3]", "result": "equivalent to or higher than linezolid"}, {"measurement": "survival on day 35", "setting": "[4]", "result": 100, "unit": "%"}, {"measurement": "MIC", "setting": "[5]", "result": 0.25, "unit": "µg/mL"}, {"measurement": "MIC", "setting": "[6]", "result": 0.25, "unit": "µg/mL"}, {"measurement": "MIC", "setting": "[7]", "result": 0.5, "unit": "µg/mL"}, {"measurement": "IC50", "setting": "[8]", "result": 46.6, "unit": "nM"}]}
